Like-named read-outs stand apart in the source and are kept apart here.
Assays:
Rhesus PDE2A3 = Rhesus PDE2A3 (Macaca mulatta, UniProt B3VTJ2); assay: PDE2 fluorescence polarization (IMAP FP) assay, rhesus PDE2A3; type: biochemical, rhesus macaque
human PDE2A1 = human PDE2A1 (Homo sapiens (Human), UniProt O00408); assay: PDE selectivity IMAP FP assay, human PDE2A1; type: biochemical; settings: Human PDE2
Method in brief: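 Compound titrations run against PDE2 in Tris HCl pH 7.2 buffer with MgCl2 and DTT for 60 min at room temperature, using 50 nM FAM-cAMP plus 1000 nM cGMP and enzyme giving 20% conversion.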

[1] = Lab B, read-out: Rhesus PDE2 Ki (nM) Lab B
[2] = Lab B, read-out: Human PDE2 Ki (nM) Lab B
[3] = Lab A, read-out: Rhesus PDE2 Ki (nM) Lab A
[4] = Lab A, read-out: Human PDE2 Ki (nM) Lab A

Sequence of Rhesus PDE2A3 (B3VTJ2 1-941): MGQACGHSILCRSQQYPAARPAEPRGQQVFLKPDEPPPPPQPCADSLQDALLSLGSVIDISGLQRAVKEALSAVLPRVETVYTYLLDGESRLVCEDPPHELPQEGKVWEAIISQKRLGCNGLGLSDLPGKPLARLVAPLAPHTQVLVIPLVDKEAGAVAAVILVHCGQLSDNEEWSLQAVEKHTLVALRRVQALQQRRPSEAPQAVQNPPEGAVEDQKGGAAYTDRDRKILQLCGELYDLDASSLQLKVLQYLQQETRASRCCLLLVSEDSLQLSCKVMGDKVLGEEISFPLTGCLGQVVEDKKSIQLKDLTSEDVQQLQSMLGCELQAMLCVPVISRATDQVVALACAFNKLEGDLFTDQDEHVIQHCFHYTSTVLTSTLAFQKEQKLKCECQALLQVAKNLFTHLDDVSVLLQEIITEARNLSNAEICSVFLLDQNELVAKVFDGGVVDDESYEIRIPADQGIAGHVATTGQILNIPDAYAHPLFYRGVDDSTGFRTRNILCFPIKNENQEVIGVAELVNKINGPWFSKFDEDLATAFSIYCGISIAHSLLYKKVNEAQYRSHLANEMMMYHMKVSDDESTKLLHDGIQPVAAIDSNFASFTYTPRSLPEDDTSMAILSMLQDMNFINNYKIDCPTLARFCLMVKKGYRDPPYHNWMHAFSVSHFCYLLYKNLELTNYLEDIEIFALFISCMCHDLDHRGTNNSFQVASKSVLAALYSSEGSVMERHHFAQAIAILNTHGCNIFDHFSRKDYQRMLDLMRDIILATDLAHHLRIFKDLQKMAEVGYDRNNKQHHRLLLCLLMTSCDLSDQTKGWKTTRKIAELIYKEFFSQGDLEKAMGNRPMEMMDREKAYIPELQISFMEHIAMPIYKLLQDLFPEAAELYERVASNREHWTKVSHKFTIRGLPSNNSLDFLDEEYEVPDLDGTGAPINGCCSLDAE
Sequence of human PDE2A1 (O00408 other isoform, or with tags, fused parts or gaps): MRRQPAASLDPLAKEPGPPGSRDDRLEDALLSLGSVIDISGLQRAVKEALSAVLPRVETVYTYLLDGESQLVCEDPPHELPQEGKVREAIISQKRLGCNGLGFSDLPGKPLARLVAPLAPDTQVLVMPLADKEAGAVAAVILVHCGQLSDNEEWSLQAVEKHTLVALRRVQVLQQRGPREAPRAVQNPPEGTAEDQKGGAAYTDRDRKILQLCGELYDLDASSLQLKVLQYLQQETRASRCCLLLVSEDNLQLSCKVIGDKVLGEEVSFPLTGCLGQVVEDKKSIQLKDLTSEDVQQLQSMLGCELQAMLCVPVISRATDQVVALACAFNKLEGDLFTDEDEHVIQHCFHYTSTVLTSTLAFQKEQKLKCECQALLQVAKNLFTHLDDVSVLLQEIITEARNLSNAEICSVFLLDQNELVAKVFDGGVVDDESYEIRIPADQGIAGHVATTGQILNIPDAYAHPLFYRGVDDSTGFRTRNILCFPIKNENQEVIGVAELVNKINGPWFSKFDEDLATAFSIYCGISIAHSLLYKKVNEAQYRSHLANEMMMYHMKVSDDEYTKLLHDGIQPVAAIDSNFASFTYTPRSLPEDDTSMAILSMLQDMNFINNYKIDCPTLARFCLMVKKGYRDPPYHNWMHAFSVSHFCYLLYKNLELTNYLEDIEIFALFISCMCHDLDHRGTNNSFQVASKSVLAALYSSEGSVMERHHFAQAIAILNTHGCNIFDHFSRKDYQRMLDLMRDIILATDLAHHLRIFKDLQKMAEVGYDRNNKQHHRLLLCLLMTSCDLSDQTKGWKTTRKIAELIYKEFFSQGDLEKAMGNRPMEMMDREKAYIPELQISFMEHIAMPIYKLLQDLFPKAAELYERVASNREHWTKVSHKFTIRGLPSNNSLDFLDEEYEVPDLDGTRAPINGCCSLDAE

| Structure (SMILES) | Ki (Rhesus PDE2A3; [1]) | Ki (human PDE2A1; [2]) | Ki (Rhesus PDE2A3; [3]) | Ki (human PDE2A1; [4]) |
| --- | --- | --- | --- | --- |
| CCC(c1ccc(OC(F)F)c(F)c1)n1nc(CO)c2c(=O)[nH]c(N(C)C)nc21 (single isomer, unassigned) [Example 127, (S)- or (R)-1-(1-(4-(Difluoromethoxy)-3-fluorophenyl)propyl)-6-(dimethylamino)-3-(hydroxymethyl)-1H-pyrazolo[3,4-d]pyrimidin-4(5H)-one] | 1.4 nM | 0.81 nM | – | – |
| C[C@@H](c1ccc(C(F)(F)F)cc1)n1nc(CF)c2c(=O)[nH]c(N3CCCC3)nc21 [Example 226, 3-(Fluoromethyl)-6-pyrrolidin-1-yl-1-{(1S)-1-[4-(trifluoromethyl)phenyl]ethyl}-1,5-dihydro-4H-pyrazolo[3,4-d]pyrimidin-4-one] | 0.26 nM | 0.22 nM | – | – |
| Cc1nn(C(C)c2ccc(C(F)(F)F)cc2)c2nc(O)[nH]c(=O)c12 (stereo not drawn) [Example 58, 6-Hydroxy-3-methyl-1-{1-[4-(trifluoromethyl)phenyl]ethyl}-1,5-dihydro-4H-pyrazolo[3,4-d]pyrimidin-4-one] | – | – | 69 nM | 49 nM |
| CC(c1ccc(OC(F)(F)F)cc1)n1nc(CF)c2c(=O)[nH]c(N(C)C)nc21 (single isomer, unassigned) [Example 164, (R)- or (S)-6-(Dimethylammo)-3-(fluoromethyl)-1-(1-(4-(trifluoromethoxy)phenyl)ethyl)-1H-pyrazolo[3,4-d]pyrimidin-4(5H)-one] | 2 nM | 1.7 nM | – | – |
| O=c1[nH]c(O)nc2c1c(CF)nn2C1(c2ccc(C(F)(F)F)cc2)CCC1 [Example 46, 3-(Fluoromethyl)-6-hydroxy-1-(1-(4-(trifluoromethyl)phenyl)cyclobutyl)-1H-pyrazolo[3,4-d]pyrimidin-4(5H)-one] | 11 nM | 9.2 nM | – | – |
| CC(c1ccc(C(C)(F)F)cc1)n1nc(CO)c2c(=O)[nH]c(N(C)C)nc21 (single isomer, unassigned) [Example 103, (S)- or (R)-1-(1-(4-(1,1-Difluoroethyl)phenyl)ethyl)-6-(dimethylamino)-3-(hydroxymethyl)-1H-pyrazolo[3,4-d]pyrimidin-4(5H)-one] | 0.3 nM | 0.28 nM | – | – |
| CC(c1ccc(C(F)F)c(F)c1)n1nc(CO)c2c(=O)[nH]c(N(C)C)nc21 (single isomer, unassigned) [Example 105, (S)- or (R)-1-(1-(4-(Difluoromethyl)-3-fluorophenyl)ethyl)-6-(dimethylamino)-3-(hydroxymethyl)-1H-pyrazolo[3,4-d]pyrimidin-4(5H)-one] | 1.6 nM | 1.1 nM | – | – |
| CN(C)c1nc2c(c(CO)nn2C(c2ccc(CC(F)(F)F)c(F)c2)C2CC2)c(=O)[nH]1 (single isomer, unassigned) [Example 95, (S)- or (R)-1-(Cyclopropyl(3-fluoro-4-(2,2,2-trifluoroethyl)phenyl)methyl)-6-(dimethylamino)-3-(hydroxymethyl)-1H-pyrazolo[3,4-d]pyrimidin-4(5H)-one] | 0.44 nM | 0.39 nM | – | – |
| CC(C)C(c1ccc(C(C)(F)F)cc1)n1nc(CF)c2c(=O)[nH]c(N(C)C)nc21 (single isomer, unassigned) [Example 206, (R)- or (S)-l-(1-(4-(1,1-Difluoroethyl)phenyl)-2-methylpropyl)-6-(dimethylamino)-3-(fluoromethyl)-1H-pyrazolo[3,4-d]pyrimidin-4(5H)-one] | 0.51 nM | 0.37 nM | – | – |
| O=c1[nH]c(O)nc2c1c(CF)nn2[C@H](c1ccc(C(F)(F)F)c(F)c1)C1CC1 [Example 48, (S)-1-(Cyclopropyl(3-fluoro-4-(lrifluoromethyl)phenyl)methyl)-3-(fluoromethyl)-6-hydroxy-1H-pyrazolo[3,4-d]pyrimidin-4(5H)-one] | 6.2 nM | 5.6 nM | – | – |
| CC(c1ccc(OC(F)(F)F)cc1)n1nc(CO)c2c(=O)[nH]c(N(C)C)nc21 (single isomer, unassigned) [Example 149, (S)- or (R)-6-(Dimethylamino)-3-(hydroxymethyl)-1-(1-(4-(trifluoromethoxy)phenyl)ethyl)-1H-pyrazolo[3,4-d]pyrimidin-4(5H)-one] | 0.46 nM | 0.51 nM | – | – |
| CC(c1ccc(C(F)(F)F)c(F)c1)n1nc(CO)c2c(=O)[nH]c(N(C)C)nc21 (single isomer, unassigned) [Example 69, (S)- or (R)-6-(Dimethylamino)-1-(1-(3-fluoro-4-(trifluoromethyl)phenyl)ethyl)-3-(hydroxymethyl)-1H-pyrazolo[3,4-d]pyrimidin-4(5H)-one] | 0.27 nM | 0.27 nM | – | – |
| CC(c1ccc(OC(F)(F)F)c(F)c1)n1nc(C(F)F)c2c(=O)[nH]c(O)nc21 (single isomer, unassigned) [Example 287, (R)- or (S)-3-(Difluoromethyl)-1-(1-(3-fluoro-4-(trifluoromethoxy)phenyl)ethyl)-6-hydroxy-1H-pyrazolo[3,4-d]pyrimidin-4(5H)-one] | 44 nM | 38 nM | – | – |
| CC(C)C(c1ccc(C(C)(F)F)c(F)c1)n1nc(CO)c2c(=O)[nH]c(N(C)C)nc21 (single isomer, unassigned) [Example 117, (R)- or (S)-1-(1-(4-(1,1-Difluoroethyl)-3-fluorophenyl)-2-methylpropyl)-6-(dimethylamino)-3-(hydroxymethyl)-1H-pyrazolo[3,4-d]pyrimidin-4(5H)-one] | 0.025 nM | 0.017 nM | – | – |
| CC(c1ccc(C(C)(C)C)cc1)n1nc(CC(F)(F)F)c2c(=O)[nH]c(O)nc21 (single isomer, unassigned) [Example 236, (R)- or (S)-1-(1-(4-tert-Butylphenyl)ethyl)-6-hydroxy-3-(2,2,2-trifluoroethyl)-1H-pyrazolo[3,4-d]pyrimidin-4(5H)-one] | 5 nM | 3.4 nM | – | – |
| CC(C)C(c1ccc(C(F)(F)F)cc1)n1nc(CF)c2c(=O)[nH]c(N(C)C)nc21 (single isomer, unassigned) [Example 162] | 0.63 nM | 0.54 nM | – | – |
| C[C@@H](c1ccc(C(F)(F)F)cc1)n1nc(CF)c2c(=O)[nH]c(N3CCC3)nc21 [Example 225, 6-Azetidin-1-yl-3-(fluoromethyl)-1-{(1S)-1-[4-(trifluoromethyl)phenyl]ethyl}-1,5-dihydro-4H-pyrazolo[3,4-d]pyrimidin-4-one] | 0.4 nM | 0.41 nM | – | – |
| CC(c1ccc(C(F)(F)F)cc1)n1nc(CO)c2c(=O)[nH]c(O)nc21 (single isomer, unassigned) [Example 19, (S)- or (R)-6-Hydroxy-3-(hydroxymethyl)-1-{1-[4-(trifluoromethyl)phenyl]ethyl}-1,5-dihydro-4H-pyrazolo[3,4-d]pyrimidin-4-one] | 20 nM | 24 nM | 14 nM | 9 nM |

Further lines, results first:

| Ki (Rhesus PDE2A3; [1]) | Ki (human PDE2A1; [2]) | Ki (Rhesus PDE2A3; [3]) | Ki (human PDE2A1; [4]) | Structure (SMILES) |
| --- | --- | --- | --- | --- |
| 0.12 nM | 0.12 nM | – | – | CC(c1ccc(C(C)(F)F)c(F)c1)n1nc(CO)c2c(=O)[nH]c(N(C)C)nc21 (single isomer, unassigned) [Example 107, (S)- or (R)-1-(1-(4-(1,1-Difluoroethyl)-3-fluorophenyl)ethyl)-6-(dimethylamino)-3-(hydroxymethyl)-1H-pyrazolo[3,4-d]pyrimidin-4(5H)-one] |
| 0.24 nM | 0.19 nM | – | – | CC(C)C(c1ccc(OC(F)F)cc1)n1nc(CF)c2c(=O)[nH]c(N(C)C)nc21 (single isomer, unassigned) [Example 184, (R)- or (S)-1-(1-(4-(Difluoromethoxy)phenyl)-2-methylpropyl)-6-(dimethylamino)-3-(fluoromethyl)-1H-pyrazolo[3,4-d]pyrimidin-4(5H)-one] |
| 0.054 nM | 0.044 nM | – | – | CC(C)c1ccc(C(C(C)C)n2nc(CO)c3c(=O)[nH]c(N(C)C)nc32)cc1 (single isomer, unassigned) [Example 79, (S)- or (R)-6-(Dimethylamino)-3-(hydroxymethyl)-1-(1-(4-isopropylphenyl)-2-methylpropyl)-1H-pyrazolo[3,4-d]pyrimidin-4(5H)-one] |
| 0.14 nM | 0.073 nM | – | – | CCC(c1ccc(C(C)(F)F)cc1)n1nc(CO)c2c(=O)[nH]c(N(C)C)nc21 (single isomer, unassigned) [Example 137, (S)- or (R)-1-(1-(4-(1,1-Difluoroethyl)phenyl)propyl)-6-(dimethylamino)-3-(hydroxymethyl)-1H-pyrazolo[3,4-d]pyrimidin-4(5H)-one] |
| 0.18 nM | 0.18 nM | – | – | CC(C)C(c1ccc(C(F)F)cc1)n1nc(CO)c2c(=O)[nH]c(N(C)C)nc21 (single isomer, unassigned) [Example 91, (S)- or (R)-1-(1-(4-(Difluoromethyl)phenyl)-2-methylpropyl)-6-(dimethylamino)-3-(hydroxymethyl)-1H-pyrazolo[3,4-d]pyrimidin-4(5H)-one] |
| 0.075 nM | 0.053 nM | – | – | CN(C)c1nc2c(c(CF)nn2C(c2ccc(C(C)(F)F)cc2)C2CC2)c(=O)[nH]1 (single isomer, unassigned) [Example 213, (S)- or (R)-1-(Cyclopropyl(4-(1,1-difluoroethyl)phenyl)methyl)-6-(dimethylamino)-3-(fluoromethyl)-1H-pyrazolo[3,4-d]pyrimidin-4(5H)-one] |
| 0.24 nM | 0.2 nM | – | – | CC(c1ccc(C(C)(C)C)cc1)n1nc(CF)c2c(=O)[nH]c(N(C)C)nc21 (single isomer, unassigned) [Example 171, (S)- or (R)-1-(1-(4-tert-Butylphenyl)ethyl)-6-(dimethylamino)-3-(fluoromethyl)-1H-pyrazolo[3,4-d]pyrimidin-4(5H)-one] |
| 0.076 nM | 0.069 nM | – | – | CC(C)C(c1ccc(C(F)(F)F)cc1)n1nc(CO)c2c(=O)[nH]c(N(C)C)nc21 (single isomer, unassigned) [Example 65, (S)- or (R)-6-Dimethylamino)-3-(hydroxymethyl)-1-(2-methyl-1-(4-(trifluoromethyl)phenyl)propyl)-1H-pyrazolo[3,4-d]pyrimidin-4(5H)-one] |

— patent US10174037B2, “Dihydropyrazolopyrimidinone compounds as PDE2 inhibitors” (Merck Sharp & Dohme Corp., priority 2015, dated 2019)
